This is an account of results in US8058295B2, “Cystic fibrosis transmembrane conductance regulator protein inhibitors and uses thereof” (The Regents of the University of California, priority 2002, dated 2011).

Series [1] in a line: Pharmacokinetic analysis in rats after intravenous bolus. The series is classed as in vivo. The protocol: A bolus of ^14C-CFTRinh-172 (50 μCi) in PBS containing 3% DMSO (titrated to pH 7.4 using NaOH) was administered intravenously in rats over 1 min (male Sprague-Dawley rats, 360-420 grams) by an indwelling jugular catheter. Blood was collected from the catheter at specified times. ^14C-Radioactivity was determined in plasma (isolated by centrifugation of whole blood at 14,000 g for 10 min) by scintillation counting (Scintiverse SE, Fisher, Calif.) using a LS-6500 Multi-Purpose Scintillation Counter (Beckman). Pharmacokinetic analysis was done using WinNonLin software (Pharsight). Rats were sacrificed by pentobarbital overdose after collection of the final blood/tissue samples. All animal procedures were approved by the UCSF Committee on Animal Research.

Series [2] addresses T1, wildtype CFTR (Homo sapiens, UniProt P13569). Put plainly: Short-circuit current in primary culture of human bronchial epithelial cells. The series is classed as cell-based. The arrangement: cells that natively express wildtype CFTR; endogenous in cells; host or cells: primary human bronchial epithelial cells.
Series [3] concerns the target CFTR (Homo sapiens, UniProt P13569). The experiment in a line: Short-circuit current in T84 colonic epithelial cells.
In series [4] the test system is phosphatase activity. The experiment in a line: Phosphatase assay. Type of series: cell-based. To be noted: 5 μM.
Series [5] in a line: Animal toxicity in mice. The series is classed as in vivo.
A short description of series [6]: Caco-2 permeability assay. The note with it: human, pH 7.3, Caco-2 monolayers, read-out: permeability coefficient (Papp). Type of series: in vitro ADME. On the procedure:
Caco-2 cells were cultured on porous inserts to give monolayer resistances of […]. For transport studies culture medium was replaced with an equal volume of Hank's buffered salt solution (HBSS) containing 15 mM glucose and 25 mM HEPES (pH 7.3).
On the technique in general: Caco-2 cells form a polarised layer with tight junctions and transporters.

The target in series [7] is T1, wildtype CFTR. The experiment in a line: YFP fluorescence assay of CFTR-mediated I^− transport in FRT cells. The series is classed as cell-based. Also noted: expressed in transfected cells; host or cells: Fischer rat thyroid (FRT) cells. The protocol:
FIG. 1A is a schematic representation of a screening technique used for detection of CFTR inhibitors. CFTR was maximally stimulated by multiple agonists in stably transfected epithelial cells co-expressing human CFTR and a yellow fluorescent protein (YFP) having Cl^−/I^− sensitive fluorescence. After addition of a test compound, I^− influx was induced by adding an I^− containing solution.
Cells were plated in 96-well black-walled microplates (Corning Costar) at a density of 20,000 cells per well in Coon's modified F12 medium supplemented with 5% fetal calf serum, 2 mM L-glutamine, 100 U/mL penicillin, and 100 μg/mL streptomycin. Assays were done at 48 hours after plating at which time cells were just confluent (˜40,000 cells per well).
Assays were done using a customized screening system (Beckman) consisting of a 3-meter robotic arm, CO2 incubator, plate washer, liquid handling workstation, bar code reader, delidding station, and two FluoStar fluorescence plate readers (BMG Labtechnologies, Offenburg, Germany), each equipped with two syringe pumps and HQ500/20X (500±10 nm) excitation and HQ535/30M (535±15 nm) emission filters (Chroma). The robotic system was integrated using SAMI version 3.3 software (Beckman) modified for two plate readers. Custom software was written in VBA (Visual Basic for Applications) to compute baseline-subtracted, normalized fluorescence slopes (giving halide influx rates) from stored data files.
The assay was set-up by loading the incubator (37° C., 90% humidity, 5% CO2) with 40-60 96-well plates containing the FRT cells, and loading a carousel with 96-well plates containing test compounds and disposable plastic pipette tips. To initiate the assay, each well of a 96-well plate was washed 3 times in PBS (300 μL/wash), leaving 50 μL PBS. Ten μL of a CFTR-activating cocktail (5 μM forskolin, 100 μM IBMX, 25 μM apigenin in PBS) was added, and after 5 min one test compound (0.5 μL of 1 mM DMSO solution) was added to each well to give 10 μM final concentration. After 10 min, 96-well plates were transferred to a plate reader for fluorescence assay. Each well was assayed individually for CFTR-mediated I^− transport by recording fluorescence continuously (200 ms per point) for 2 s (baseline) and then for 12 s after rapid (<0.5 s) addition of 160 μL of isosmolar PBS in which 137 mM Cl^− was replaced by I^−.
The primary screening technique used to identify the compounds of the invention was designed to identify inhibitors of CFTR Cl^− conductance by direct CFTR-inhibitor interaction. CFTR was pre-stimulated in CFTR-expressing FRT cells by an activating cocktail containing forskolin, IBMX and apigenin, as shown schematically in FIG. 1A. The activation of CFTR by multiple mechanisms (cAMP elevation, phosphodiesterase inhibition, and direct CFTR binding) allowed identification of inhibitors that blocked the CFTR Cl^− transporting pathway directly rather than more proximal step(s) in a signaling pathway. The FRT cells co-expressed a yellow fluorescent protein-based Cl^−/I^− sensor that provided a quantitative fluorescence read-out of inhibition potency (See, e.g., Jayaraman et al., 2000, J. Biol. Chem. 275:6047-6050; Galietta et al., 2001, Am. J. Physiol. 281:C1734-C1742.). After CFTR pre-stimulation and compound addition, cells were subjected to an inwardly-directed I^− gradient to drive I^− influx and produce decreasing fluorescence. Each assay consisted of recording baseline fluorescence for 2 seconds, followed by 12 seconds of continuous recording of fluorescence after rapid addition of the I^− containing solution. Compounds were tested separately at 10 μM concentration in a 96-well format utilizing a fully-automated high-throughput screening apparatus (see Example 2 below).

Where [8] appears, read: rat, i.v. bolus, 2-compartment model.
Setting [9] is: intraperitoneal 1000 μg/kg daily for 7 days.

T1 sequence (P13569 whole entry): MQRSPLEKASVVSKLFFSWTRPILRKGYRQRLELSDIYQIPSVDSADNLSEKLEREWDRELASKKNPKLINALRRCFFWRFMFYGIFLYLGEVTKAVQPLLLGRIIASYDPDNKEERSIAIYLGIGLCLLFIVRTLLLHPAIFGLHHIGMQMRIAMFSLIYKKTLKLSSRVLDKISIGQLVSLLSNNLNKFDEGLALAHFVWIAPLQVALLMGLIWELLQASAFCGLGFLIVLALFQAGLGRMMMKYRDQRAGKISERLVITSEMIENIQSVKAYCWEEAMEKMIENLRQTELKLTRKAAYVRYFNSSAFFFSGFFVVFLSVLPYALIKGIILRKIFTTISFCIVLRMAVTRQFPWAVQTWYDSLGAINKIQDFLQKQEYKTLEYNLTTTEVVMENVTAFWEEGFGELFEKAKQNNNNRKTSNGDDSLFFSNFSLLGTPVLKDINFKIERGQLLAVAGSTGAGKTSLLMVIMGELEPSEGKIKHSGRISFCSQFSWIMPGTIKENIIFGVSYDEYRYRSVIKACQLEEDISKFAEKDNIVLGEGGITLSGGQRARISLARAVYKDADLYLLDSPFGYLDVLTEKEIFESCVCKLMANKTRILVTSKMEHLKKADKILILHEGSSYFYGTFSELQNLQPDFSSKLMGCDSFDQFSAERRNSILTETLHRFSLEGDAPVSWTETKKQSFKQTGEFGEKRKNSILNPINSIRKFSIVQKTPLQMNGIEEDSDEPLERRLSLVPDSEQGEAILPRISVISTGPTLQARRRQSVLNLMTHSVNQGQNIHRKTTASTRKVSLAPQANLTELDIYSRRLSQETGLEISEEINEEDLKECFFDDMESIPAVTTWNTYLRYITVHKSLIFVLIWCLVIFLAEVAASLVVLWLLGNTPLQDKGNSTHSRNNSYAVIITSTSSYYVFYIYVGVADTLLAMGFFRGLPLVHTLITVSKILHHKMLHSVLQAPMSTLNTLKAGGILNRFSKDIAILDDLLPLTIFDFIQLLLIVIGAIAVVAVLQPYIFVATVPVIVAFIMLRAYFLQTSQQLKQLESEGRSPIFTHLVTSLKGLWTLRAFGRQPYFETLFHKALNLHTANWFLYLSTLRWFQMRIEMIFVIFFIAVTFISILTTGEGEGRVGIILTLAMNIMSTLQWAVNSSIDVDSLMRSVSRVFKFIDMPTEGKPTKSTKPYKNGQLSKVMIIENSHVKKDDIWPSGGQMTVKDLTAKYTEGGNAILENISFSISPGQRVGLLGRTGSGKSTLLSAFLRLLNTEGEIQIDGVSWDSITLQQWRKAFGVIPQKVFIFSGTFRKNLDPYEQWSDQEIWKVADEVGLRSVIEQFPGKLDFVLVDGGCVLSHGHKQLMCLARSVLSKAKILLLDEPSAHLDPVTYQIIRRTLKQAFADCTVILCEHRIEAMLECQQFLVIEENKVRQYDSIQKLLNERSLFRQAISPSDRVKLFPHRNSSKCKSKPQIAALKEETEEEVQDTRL
Sequence of CFTR (P13569 whole entry): as above

As a reminder, the clearance is the rate of elimination divided by the concentration. Broadly, the IC50 is the point on the concentration scale where inhibition reaches its midpoint. Low values mean inhibition by little substance, high ones a need for much substance. Regarding `O=C(O)c1ccc(/C=C2\SC(=S)N(c3cccc(C(F)(F)F)c3)C2=O)cc1` [CFTRinh-172, 3-[(3-trifluoromethyl)phenyl]-5-[(4-carboxyphenyl)methylene]-2-thioxo-4-thiazolidinone], in series [1] (72 hr after administration), the detection in plasma result is given as “No ^14C-labeled CFTRinh-172 was detected”. In series [1] (14 days after administration), the “detection in liver or kidney homogenates” value is listed as “No ^14C-labeled CFTRinh-172 was detected”. For the same compound, in series [1] (setting [8]), the “area under curve (AUC)” value turned out to be 3800 ng·h/mL, the clearance was 99 mL/h, the elimination half-time stood at 10.3 h and the maximum serum concentration was determined as 3.2 µg/mL. In series [1] (setting [8]), this compound gave a redistribution half-time of 0.14 h and a volume of distribution of 1.2 L. For the same compound, the “inhibition of short-circuit current” value in series [2] (added from the basolateral side) is on record as “inhibited short-circuit current”. Further, the “inhibition of short-circuit current” value in series [2] (apical side, amiloride, after CPT-cAMP activation) is “inhibited short-circuit current strongly”. For the same compound, the IC50 in series [3] was approximately 3000 nM. In series [3] (KI, cells depolarized by high-K^+ basolateral solution), this compound showed a Ki of approximately 300 nM. Moreover, in series [3] (apparent KI, after basolateral permeabilization with amphotericin B, Cl^− gradient), the Ki is 300 nM. For the same compound, the Ki in series [3] (apparent KI, non-permeabilized T84 cells) was approximately 3000 nM. Further, in series [4], the “effect on phosphatase activity” value is “did not affect”. For the same compound, in series [5] (setting [9]), the “food and water intake” value was “not diminished”; the overt toxicity result is “did not cause overt toxicity”; the “serum electrolyte concentrations, glucose, liver function indices, serum creatinine, amylase and hematocrit” value is recorded as “not changed”. The overt toxicity entry in series [5] (single systemic dose 10 mg/kg) was “did not cause overt toxicity”. In series [6], the Papp A→B at 25 μM was 16 ×10⁻⁶ cm/s. For the same compound, the “concentration giving significant CFTR inhibition” value in series [7] (dose-inhibition, FIG. 2A) lay in the range of 0.3 to 0.6 µM. For the same compound, the “relative potency (CFTR inhibition)” value in series [7] (relative to CFTRinh-172 = 1.0) came to 1.0.
